The target of experiment [1] is T1, Bromodomain-containing protein 2 (Homo sapiens, UniProt P25440). Nature of the experiment: Binding affinity to BRD2 BD2 domain (unknown origin).
For experiment [2], the target named is T1, Bromodomain-containing protein 2. Description: Binding affinity to BRD2 BD1 domain (unknown origin).
For experiment [3], the target named is von Hippel-Lindau disease tumor suppressor/Bromodomain-containing protein 2 (Homo sapiens, UniProt P25440+P40337). Nature of the experiment: PROTAC activity at BRD2/VHL in human 22Rv1 cells assessed as protein degradation measured after 16 hrs. The format is cell-based.
Experiment [4] concerns the target T2, Protein cereblon/Protein deacetylase HDAC6 (Homo sapiens, UniProt Q96SW2+Q9UBN7). Description: PROTAC activity at HDAC6/CRBN in human MM.1S cells measured after 24 hrs. The format is cell-based, MM1.S.
Experiment [5] in a line: Inhibition of PRC2 catalytic core MTase activity (unknown origin) by MTase Glo assay. Set-up: species or system Homo sapiens.
The subject of the next experiment is KARPAS-422. Nature of the experiment: Antiproliferative activity against human KARPAS-422 cells assessed as growth inhibition after 14 days by Cell Titer-Glo luminescent assay. Type of experiment: functional. The conditions noted are these: KARPAS-422, 336 h, time 14 day. (In general: Cellular ATP, detected with luciferase, serves as a proxy for viable cell number.)

For experiment [6], the target named is T3, Polycomb protein EED (Homo sapiens, UniProt O75530). Description: Binding affinity to PRC2 catalytic core EED (unknown origin) by surface plasmon resonance assay.
T3 sequence (O75530 whole entry): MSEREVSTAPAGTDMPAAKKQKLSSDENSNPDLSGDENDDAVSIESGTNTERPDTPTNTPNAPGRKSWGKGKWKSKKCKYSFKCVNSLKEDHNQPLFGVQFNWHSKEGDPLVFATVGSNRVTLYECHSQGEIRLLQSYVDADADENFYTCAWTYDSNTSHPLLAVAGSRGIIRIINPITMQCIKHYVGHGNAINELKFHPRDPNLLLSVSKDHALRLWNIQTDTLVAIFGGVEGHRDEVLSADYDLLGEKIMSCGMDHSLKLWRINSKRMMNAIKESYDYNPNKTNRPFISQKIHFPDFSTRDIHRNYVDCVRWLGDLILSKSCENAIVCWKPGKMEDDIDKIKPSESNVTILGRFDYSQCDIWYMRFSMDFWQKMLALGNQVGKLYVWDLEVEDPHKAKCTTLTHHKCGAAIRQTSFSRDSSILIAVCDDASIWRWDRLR
In experiment [7] the target is Histone-lysine N-methyltransferase EZH2 (Homo sapiens, UniProt Q15910). Nature of the experiment: Inhibition of EZH2 methyltransferase activity (unknown origin) assessed `transfer of [3H]methyl group from SAM to substrate by biochemical assay.
The target in experiment [8] is T4, von Hippel-Lindau disease tumor suppressor/Transcription intermediary factor 1-alpha (Homo sapiens, UniProt O15164+P40337). Nature of the experiment: PROTAC activity at TRIM24/VHL in human HEK293FT cells assessed as degradation protein at 5 uM measured after 24 hrs. The format is cell-based.
Target sequence in this assay (O15164 whole entry, looked up): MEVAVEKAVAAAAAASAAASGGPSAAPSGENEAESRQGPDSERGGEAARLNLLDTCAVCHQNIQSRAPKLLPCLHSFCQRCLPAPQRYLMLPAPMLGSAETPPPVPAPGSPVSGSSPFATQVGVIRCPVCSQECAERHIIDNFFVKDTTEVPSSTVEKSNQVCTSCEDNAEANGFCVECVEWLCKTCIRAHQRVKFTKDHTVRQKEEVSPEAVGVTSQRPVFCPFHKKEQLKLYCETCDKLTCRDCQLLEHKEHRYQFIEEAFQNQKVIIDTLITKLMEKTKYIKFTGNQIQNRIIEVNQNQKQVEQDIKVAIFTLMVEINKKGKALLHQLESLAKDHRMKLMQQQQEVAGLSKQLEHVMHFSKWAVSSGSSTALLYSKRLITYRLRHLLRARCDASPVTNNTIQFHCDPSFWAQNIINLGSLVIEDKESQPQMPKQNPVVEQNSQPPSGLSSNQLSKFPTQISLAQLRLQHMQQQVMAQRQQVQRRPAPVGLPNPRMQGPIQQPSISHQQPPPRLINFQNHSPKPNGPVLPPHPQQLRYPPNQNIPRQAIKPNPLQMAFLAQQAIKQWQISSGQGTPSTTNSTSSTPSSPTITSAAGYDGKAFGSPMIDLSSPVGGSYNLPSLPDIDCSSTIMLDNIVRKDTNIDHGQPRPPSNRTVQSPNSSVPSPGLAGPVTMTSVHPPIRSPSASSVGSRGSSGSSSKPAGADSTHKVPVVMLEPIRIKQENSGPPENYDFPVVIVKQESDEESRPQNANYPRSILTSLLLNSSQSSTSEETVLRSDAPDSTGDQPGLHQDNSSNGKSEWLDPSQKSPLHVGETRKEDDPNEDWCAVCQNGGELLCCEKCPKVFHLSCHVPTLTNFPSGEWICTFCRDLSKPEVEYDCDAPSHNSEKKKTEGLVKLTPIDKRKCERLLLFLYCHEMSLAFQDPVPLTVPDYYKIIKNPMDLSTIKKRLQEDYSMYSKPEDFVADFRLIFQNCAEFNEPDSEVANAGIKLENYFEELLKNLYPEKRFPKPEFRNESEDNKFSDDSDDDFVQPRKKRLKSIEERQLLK
Target sequence in this assay (P40337 whole entry, looked up): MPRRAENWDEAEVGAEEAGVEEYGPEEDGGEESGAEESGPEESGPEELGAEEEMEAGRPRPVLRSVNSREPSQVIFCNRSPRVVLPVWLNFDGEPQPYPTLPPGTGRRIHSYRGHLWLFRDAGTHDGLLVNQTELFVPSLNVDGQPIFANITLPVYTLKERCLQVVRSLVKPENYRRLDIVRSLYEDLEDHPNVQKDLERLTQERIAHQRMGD
Experiment [9] has as its target T4, von Hippel-Lindau disease tumor suppressor/Transcription intermediary factor 1-alpha. Description: PROTAC activity at TRIM24/VHL in human MOLM-13 cells assessed as degradation protein at 5 uM measured after 24 hrs. The format is cell-based.
Target sequence in this assay (O15164 whole entry, looked up): as the sequence (O15164 whole entry, looked up) above
Target sequence in this assay (P40337 whole entry, looked up): as the sequence (P40337 whole entry, looked up) above
For experiment [10], the target named is von Hippel-Lindau disease tumor suppressor/Polycomb protein EED (Homo sapiens, UniProt O75530+P40337). Nature of the experiment: PROTAC activity at PRC2 catalytic core EED/VHL (unknown origin) measured after 24 hrs by Western blot analysis. The format is protein assay. A general note: A western blot detects proteins with antibodies after separation by electrophoresis.

In experiment [11] the target is von Hippel-Lindau disease tumor suppressor/Polycomb protein SUZ12 (Homo sapiens, UniProt P40337+Q15022). Description: PROTAC activity at PRC2 catalytic core SUZ12/VHL in human DLBCL cells measured after 24 hrs by Western blot analysis. Type of experiment: cell-based.
For experiment [12], the target named is T3, Polycomb protein EED. Description: Inhibition of PRC2 catalytic core EED (unknown origin).
Experiment [13] addresses von Hippel-Lindau disease tumor suppressor/Histone-lysine N-methyltransferase EZH2 (Homo sapiens, UniProt P40337+Q15910, Y641N). Nature of the experiment: PROTAC activity at PRC2 catalytic core EZH2/EZH2 Y641N mutant/VHL (unknown origin) measured after 24 hrs by Western blot analysis.
Experiment [14] has as its target T2, Protein cereblon/Protein deacetylase HDAC6. Description: PROTAC activity at HDAC6/CRBN in human MM.1S cells. The format is cell-based, MM1.S.
A further experiment deals with MM1.S. Nature of the experiment: Growth inhibition of human MM1.S cells. The format is functional.
For experiment [15], the target named is Polyamine deacetylase HDAC10 (Homo sapiens, UniProt Q969S8). Description: Inhibition of human recombinant His-tagged HDAC10 incubated for 20 mins by HDAC Glo assay.
Chain of Polyamine deacetylase HDAC10 (Q969S8 whole entry): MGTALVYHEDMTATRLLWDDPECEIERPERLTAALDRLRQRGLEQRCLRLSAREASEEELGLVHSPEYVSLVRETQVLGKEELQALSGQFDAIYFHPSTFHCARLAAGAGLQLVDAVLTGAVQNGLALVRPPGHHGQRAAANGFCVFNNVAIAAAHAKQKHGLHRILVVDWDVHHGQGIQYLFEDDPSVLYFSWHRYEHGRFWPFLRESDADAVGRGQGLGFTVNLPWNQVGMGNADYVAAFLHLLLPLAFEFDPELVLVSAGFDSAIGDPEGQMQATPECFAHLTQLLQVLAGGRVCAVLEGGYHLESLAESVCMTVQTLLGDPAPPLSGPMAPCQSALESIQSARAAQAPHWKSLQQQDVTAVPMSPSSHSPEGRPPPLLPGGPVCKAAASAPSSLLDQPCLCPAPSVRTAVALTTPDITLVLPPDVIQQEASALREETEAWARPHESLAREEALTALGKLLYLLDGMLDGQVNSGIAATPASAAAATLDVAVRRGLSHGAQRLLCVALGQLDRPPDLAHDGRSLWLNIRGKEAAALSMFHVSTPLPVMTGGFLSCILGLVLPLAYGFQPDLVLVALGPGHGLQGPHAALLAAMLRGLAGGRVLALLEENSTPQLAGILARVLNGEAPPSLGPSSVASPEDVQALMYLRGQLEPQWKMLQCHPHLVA
The target of the next experiment is Histone deacetylase 8 (Homo sapiens, UniProt Q9BY41). Nature of the experiment: Inhibition of human recombinant His-tagged HDAC8 incubated for 20 mins by HDAC Glo assay.
Experiment [16] has as its target Protein deacetylase HDAC6 (Homo sapiens, UniProt Q9UBN7). Nature of the experiment: Inhibition of human recombinant GST-tagged HDAC6 incubated for 20 mins by HDAC Glo assay.
A further experiment addresses Histone deacetylase 1 (Homo sapiens, UniProt Q13547). Description: Inhibition of human recombinant GST-tagged HDAC1 incubated for 20 mins by HDAC Glo assay.
The next experiment addresses Histone deacetylase 2 (Homo sapiens, UniProt Q92769). Nature of the experiment: Inhibition of human recombinant GST-tagged HDAC2 incubated for 20 mins by HDAC Glo assay.
The next experiment concerns the target Histone deacetylase 3 (Homo sapiens, UniProt O15379). Description: Inhibition of human recombinant HDAC3 incubated for 20 mins by HDAC Glo assay.
A further experiment has as its system MV4-11. Description: Antiproliferative activity against human MV4-11 cells measured after 7 days. Particulars: MV4-11, 168 h. The format is functional, cell-based.
Experiment [17] has as its target T5, von Hippel-Lindau disease tumor suppressor/SWI/SNF-related matrix-associated actin-dependent regulator of chromatin subfamily A member 2 (Homo sapiens, UniProt P40337+P51531). Nature of the experiment: PROTAC activity at SMARCA2/VHL in human NCI-H1568 cells assessed as degradation protein measured after 18 hrs. Type of experiment: cell-based.
For experiment [18], the target named is T6, Protein polybromo-1/von Hippel-Lindau disease tumor suppressor (Homo sapiens, UniProt P40337+Q86U86). Description: PROTAC activity at PBRM1/VHL in human NCI-H1568 cells assessed as degradation protein measured after 18 hrs. The format is cell-based.
The test system of another experiment is SK-MEL-5. Nature of the experiment: Antiproliferative activity against human SK-MEL-5 cells measured after 7 days. Type of experiment: functional, cell-based. Particulars: SK-MEL-5, 168 h.
Experiment [19] has as its target SWI/SNF-related matrix-associated actin-dependent regulator of chromatin subfamily A member 4 (Homo sapiens, UniProt P51532). Description: Inhibition of SMARCA4 BD (unknown origin).
Experiment [20] is described as follows: Antiproliferative activity against human NCI-H1568 cells measured after 7 days. The format is functional, cell-based. The conditions noted are these: NCI-H1568, 168 h.
For experiment [21], the target named is T5, von Hippel-Lindau disease tumor suppressor/SWI/SNF-related matrix-associated actin-dependent regulator of chromatin subfamily A member 2. Nature of the experiment: PROTAC activity at SMARCA2/VHL in human MV4-11 cells assessed as degradation protein measured after 18 hrs. The format is cell-based.
For experiment [22], the target named is T6, Protein polybromo-1/von Hippel-Lindau disease tumor suppressor. Description: PROTAC activity at PBRM1/VHL in human MV4-11 cells assessed as degradation protein measured after 18 hrs. The format is cell-based.
Experiment [23] addresses von Hippel-Lindau disease tumor suppressor/SWI/SNF-related matrix-associated actin-dependent regulator of chromatin subfamily A member 4 (Homo sapiens, UniProt P40337+P51532). Nature of the experiment: PROTAC activity at SMARCA4/VHL in human MV4-11 cells assessed as degradation protein measured after 18 hrs. The format is cell-based.
The target of experiment [24] is SWI/SNF-related matrix-associated actin-dependent regulator of chromatin subfamily A member 2 (Homo sapiens, UniProt P51531). Description: Inhibition of SMARCA2 BD (unknown origin).
Experiment [25] is described as follows: Inhibition of […] BD5 (unknown origin). The arrangement: species or system Homo sapiens.
In experiment [26] the target is T4, von Hippel-Lindau disease tumor suppressor/Transcription intermediary factor 1-alpha. Nature of the experiment: PROTAC activity at TRIM24/VHL (unknown origin) assessed as degradation protein. The format is protein assay.
The target in experiment [27] is T7, Bromodomain-containing protein 4 (Homo sapiens, UniProt O60885). Nature of the experiment: Binding affinity to BRD4 BD2 domain (unknown origin).
The target in experiment [28] is T8, Bromodomain-containing protein 3 (Homo sapiens, UniProt Q15059). Description: Binding affinity to BRD3 BD1 domain (unknown origin).
For experiment [29], the target named is T8, Bromodomain-containing protein 3. Description: Binding affinity to BRD3 BD2 domain (unknown origin).
Experiment [30] addresses T7, Bromodomain-containing protein 4. Nature of the experiment: Binding affinity to BRD4 BD1 domain (unknown origin).
The target of experiment [31] is Histone-lysine N-methyltransferase EZH1 (Homo sapiens, UniProt Q92800). Description: Inhibition of EZH1 methyltransferase activity (unknown origin) assessed `transfer of [3H]methyl group from SAM to substrate by biochemical assay.

T1 sequence (P25440 whole entry, the tested form may be a part): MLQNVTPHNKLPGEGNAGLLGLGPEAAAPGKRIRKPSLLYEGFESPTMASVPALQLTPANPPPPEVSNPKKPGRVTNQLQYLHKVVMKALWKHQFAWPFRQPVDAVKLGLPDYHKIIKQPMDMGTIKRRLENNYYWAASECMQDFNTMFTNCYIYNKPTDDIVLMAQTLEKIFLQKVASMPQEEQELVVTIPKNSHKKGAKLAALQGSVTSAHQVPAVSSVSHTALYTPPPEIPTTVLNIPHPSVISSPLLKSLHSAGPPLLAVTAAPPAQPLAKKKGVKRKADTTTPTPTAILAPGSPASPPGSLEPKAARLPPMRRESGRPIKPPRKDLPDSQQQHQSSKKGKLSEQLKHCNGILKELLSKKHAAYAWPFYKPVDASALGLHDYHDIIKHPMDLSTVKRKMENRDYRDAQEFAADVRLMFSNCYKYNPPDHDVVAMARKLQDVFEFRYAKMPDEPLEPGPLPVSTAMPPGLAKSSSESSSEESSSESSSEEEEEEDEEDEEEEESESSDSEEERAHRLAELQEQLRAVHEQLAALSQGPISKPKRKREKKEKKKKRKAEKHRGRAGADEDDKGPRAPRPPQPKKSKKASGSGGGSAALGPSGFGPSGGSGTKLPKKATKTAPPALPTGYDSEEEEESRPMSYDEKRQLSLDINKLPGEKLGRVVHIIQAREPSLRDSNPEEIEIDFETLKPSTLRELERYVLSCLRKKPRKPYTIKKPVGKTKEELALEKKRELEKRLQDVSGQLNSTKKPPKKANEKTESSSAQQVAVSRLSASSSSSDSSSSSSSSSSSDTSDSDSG
T5 sequence (P51531 whole entry): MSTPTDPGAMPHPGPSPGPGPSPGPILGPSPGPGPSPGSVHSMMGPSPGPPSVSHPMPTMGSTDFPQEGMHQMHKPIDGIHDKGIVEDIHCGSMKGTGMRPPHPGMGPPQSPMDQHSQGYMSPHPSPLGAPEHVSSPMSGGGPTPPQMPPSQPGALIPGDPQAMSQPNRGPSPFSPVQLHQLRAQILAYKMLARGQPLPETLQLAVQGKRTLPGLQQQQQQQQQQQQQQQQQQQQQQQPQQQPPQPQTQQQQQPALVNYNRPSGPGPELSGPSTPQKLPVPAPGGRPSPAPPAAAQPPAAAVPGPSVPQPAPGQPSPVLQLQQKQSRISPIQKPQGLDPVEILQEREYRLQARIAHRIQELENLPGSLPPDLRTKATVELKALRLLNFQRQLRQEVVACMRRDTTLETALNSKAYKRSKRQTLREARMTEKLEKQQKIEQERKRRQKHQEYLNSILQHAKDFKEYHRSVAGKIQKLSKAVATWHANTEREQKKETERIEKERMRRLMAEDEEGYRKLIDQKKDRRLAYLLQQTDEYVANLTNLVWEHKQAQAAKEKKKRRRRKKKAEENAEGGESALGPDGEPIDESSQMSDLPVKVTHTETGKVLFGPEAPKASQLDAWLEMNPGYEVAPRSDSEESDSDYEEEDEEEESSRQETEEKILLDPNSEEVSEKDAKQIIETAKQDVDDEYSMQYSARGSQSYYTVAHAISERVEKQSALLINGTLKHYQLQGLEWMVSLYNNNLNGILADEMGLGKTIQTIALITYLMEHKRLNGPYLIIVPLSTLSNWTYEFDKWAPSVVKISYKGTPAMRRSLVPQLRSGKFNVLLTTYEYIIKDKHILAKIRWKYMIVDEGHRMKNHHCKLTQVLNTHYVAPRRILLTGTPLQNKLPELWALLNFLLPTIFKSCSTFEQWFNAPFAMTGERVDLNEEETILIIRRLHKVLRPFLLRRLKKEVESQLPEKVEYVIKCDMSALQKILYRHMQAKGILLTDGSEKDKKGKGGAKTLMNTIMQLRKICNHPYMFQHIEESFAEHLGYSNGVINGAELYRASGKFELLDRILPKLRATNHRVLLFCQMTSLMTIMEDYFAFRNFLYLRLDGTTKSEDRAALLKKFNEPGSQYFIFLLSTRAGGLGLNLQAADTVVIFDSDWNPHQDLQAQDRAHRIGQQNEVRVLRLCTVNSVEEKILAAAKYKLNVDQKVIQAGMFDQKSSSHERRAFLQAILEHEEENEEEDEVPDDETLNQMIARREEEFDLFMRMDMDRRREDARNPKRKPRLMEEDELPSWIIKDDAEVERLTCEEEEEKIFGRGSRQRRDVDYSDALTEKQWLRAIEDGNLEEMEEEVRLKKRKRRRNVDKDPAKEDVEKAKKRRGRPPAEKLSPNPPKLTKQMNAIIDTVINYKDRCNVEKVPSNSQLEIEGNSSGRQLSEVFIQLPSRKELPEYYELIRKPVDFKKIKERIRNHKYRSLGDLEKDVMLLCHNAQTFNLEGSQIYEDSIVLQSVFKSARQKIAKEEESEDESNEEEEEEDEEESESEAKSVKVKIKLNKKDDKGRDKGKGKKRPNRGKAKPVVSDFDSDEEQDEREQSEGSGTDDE
T5 sequence (P40337 whole entry): as the sequence (P40337 whole entry, looked up) above

As a reminder, the Kd is a measure of binding affinity in units of concentration. A low value points to higher affinity. By EC50 is commonly meant the concentration needed to bring the measured effect to its halfway point. Regarding `Cc1ncsc1-c1ccc([C@H](C)NC(=O)[C@@H]2C[C@@H](O)CN2C(=O)C(NC(=O)COCCCOCCNC(=O)C[C@@H]2N=C(c3ccc(Cl)cc3)c3c(sc(C)c3C)-n3c(C)nnc32)C(C)(C)C)cc1` (single isomer, unassigned), the Kd in experiment [1] came out at 4.7 nM; in [2] it was 34 nM. Also, the EC50 in experiment [3] was less than 5 nM.
In experiment [4], `CCCCN(Cc1ccc(C(=O)NO)cc1)C(=O)Nc1ccc(NC(=O)CCCc2cn(CCOCCNc3cccc4c3C(=O)N(C3CCC(=O)NC3=O)C4=O)nn2)cc1` (stereo unspecified) had an EC50 of 3.2 nM.
The term pIC50 denotes the negative decadic logarithm of the IC50, by convention in mol/L. Read a high pIC50 as a small IC50. A word on the GI50: it is the concentration that inhibits growth by half. As for `Cc1nc(CCC(=O)NCCCCC(=O)N[C@@H](C(=O)N2C[C@H](O)C[C@H]2C(=O)NCc2ccc(-c3scnc3C)cc2)C(C)(C)C)ccc1-c1cnc(NCc2c(F)ccc3c2CCO3)n2cnnc12`, in [5], the pIC50 worked out at 8.11. In addition, the GI50 with KARPAS-422 came to 57 nM. Also, the Kd on Polycomb protein EED [6] was 0.537 nM.
One may read the IC50 as the concentration needed to halve the response being measured. `Cc1cc(C)c(CNC(=O)c2cc(-c3ccc(N4CCN(CCNC(=O)CC56CC7CC(CC(C7)C5)C6)CC4)nc3)cc3c2cnn3C(C)C)c(=O)[nH]1` had an IC50 in experiment [7] of 120 nM.
As to `CNC(=O)CCc1ccc(-c2cnc(NCc3c(F)ccc4c3CCO4)n3cnnc23)c(C)n1`, the pIC50 in experiment [5] worked out at 8.43. For the same compound, binding at Polycomb protein EED [6] was characterised by a dissociation constant (Kd) of 0.245 nM.
With `CCCOc1cccc(Oc2cc3c(cc2NS(=O)(=O)c2cccc(C(=O)NCCOCCOCCOCC(=O)N[C@H](C(=O)N4C[C@H](O)C[C@H]4C(=O)NCc4ccc(-c5scnc5C)cc4)C(C)(C)C)c2)n(C)c(=O)n3C)c1`, the Activity in experiment [8] and in experiment [9] was 72% in each case.
As for `Cc1ncsc1-c1ccc(CNC(=O)[C@@H]2C[C@@H](O)CN2C(=O)[C@@H](NC(=O)CCCNC(=O)c2ccc(-c3cnc(NCc4ccco4)n4cnnc34)cc2)C(C)(C)C)cc1`, the results for the EC50 in experiment [10], in experiment [11] and in [13] were 610 nM, 590 nM and 300 nM, respectively. The midpoint of inhibition at Polycomb protein EED [12], the IC50, lay at 247 nM.
Consider `O=C1CCC(N2C(=O)c3cccc(NCCOCCOCCn4cc(CCCCN(Cc5ccc(C(=O)NO)cc5)C(=O)Nc5ccccc5)nn4)c3C2=O)C(=O)N1` (stereo unspecified), for which the midpoint of the response in [14], the EC50, lay at 3.8 nM. In the experiment on MM1.S, the GI50 amounted to 1210 nM.
For the compound `COc1ccc(/C=N/NC(=O)CCCCCCCC(=O)NO)cc1`, the IC50 was 11.1 nM in [15]; 60.3 nM at Histone deacetylase 8; 35.8 nM in experiment [16]; 2.28 nM at Histone deacetylase 1; 3.12 nM at Histone deacetylase 2; 1.82 nM at Histone deacetylase 3.
For `Cc1nc(CCC(=O)NCCOc2ccc(OCC(=O)N[C@@H](C(=O)N3C[C@H](O)C[C@H]3C(=O)NCc3ccc(-c4scnc4C)cc3)C(C)(C)C)cc2)ccc1-c1cnc(NCc2c(F)ccc3c2CCO3)n2cnnc12`, the negative-log IC50 (pIC50) in experiment [5] is 8.17. For the same compound, the GI50 in the experiment on KARPAS-422 amounted to 45 nM. Further, the Kd at Polycomb protein EED [6] was 0.955 nM.
Regarding `Cc1ncsc1-c1ccc(CNC(=O)[C@H]2C[C@H](O)CN2C(=O)[C@H](NC(=O)C2(F)CC2)C(C)(C)C)c(OCCOc2ccc(CN3CCN(c4cc(-c5ccccc5O)nnc4N)CC3)cc2)c1`, the IC50 turned out to be 28 nM in the experiment with MV4-11; 77 nM in the experiment on SK-MEL-5; 560 nM in [19]; 68 nM in experiment [20]; 770 nM in [24]; 504 nM in experiment [25]. The EC50 in experiment [17] was 3.3 nM; in [18] it was 15.6 nM; in [21] it was 6 nM; in [22] it was 32 nM; in experiment [23], 11 nM.
As to `CCCOc1cccc(Oc2cc3c(cc2NS(=O)(=O)c2ccc(OC)c(OC)c2)n(C)c(=O)n3C)c1`, in [26], the IC50 was found to be 43 nM.
Regarding `CC(=O)N[C@H](C(=O)N1C[C@H](O)C[C@H]1C(=O)NCc1ccc(-c2scnc2C)cc1)C(C)(C)SCCCCCNC(=O)C[C@@H]1N=C(c2ccc(Cl)cc2)c2c(sc(C)c2C)-n2c(C)nnc21`, the Kd in [1] came out at 94 nM; in [2] it was 111 nM; in experiment [27] it was 44 nM; in experiment [28], 35 nM; in [29] it was 39 nM; in experiment [30], 75 nM.
`Cc1cc(C)c(CNC(=O)c2cc(-c3ccc(N4CCN(C(C)C)CC4)nc3)cc3c2cnn3C(C)C)c(=O)[nH]1` came in with an IC50 in experiment [31] greater than 2500 nM.

The values are drawn from ChEMBL document CHEMBL5230109, “Recent advances in epigenetic proteolysis targeting chimeras (Epi-PROTACs)” (Eur J Med Chem, 2020).
